Laboratory results reported in patent US4045556A, “Dipeptide derivatives, process for manufacture and pharmaceutical preparations” (priority 1974, dated 1977).

What was measured:
Format in all cases: in vivo
[1] = tested on: toxicity of amphetamine in mice; assay: amphetamine group toxicity (mortality rate); details: 15 min later amphetamine 7 mg/kg
Experimental: It is known that the toxicity of amphetamine is increased by administration of anti-depressive compounds, especially those that have a central nervous system stimulating activity, this activity being evidenced by an increased mortality in the test.
The test substances were intraperitoneally injected and fifteen minutes later the test animals were administered amphetamine in a dose of 7 mg per kilogram. […] Those animals which were treated only with amphetamine, as control, were still all alive at that time.

[2] = tested on: reserpine-pretreated mice (hypomobility); assay: test of motility (reserpine hypomotility); design: motility measurement: unit not given here; details: for motility measurement: mice, reserpine 5 mg/kg i.p. 10-20 h before, photocell activity cage; for stimulation of the mobility of animals: reserpine-pretreated mice, result in words
Experimental: Test mice were injected ten to twenty hours before the experiment with 5 mg of reserpine per kilogram of body weight, intraperitoneally. The animals developed until the beginning of the experiment a marked hypomobility. The test substances (TRH, A, B and C) are then injected intraperitoneally to groups of ten mice. Another group of ten mice pretreated with reserpine only acted as control group. The movement and activity of the animals are determined, measured and registered, the animals being confined in a photocell activity cage.
The average motility measurement for the reserpine pretreated control animals is 14.2, the untreated mice is 123.

thyrotropin release = thyrotropin release (endocrinological properties), standard tests; details: comparison with TRH
Excerpt: The endocrinological properties of typical compounds of the invention, such as L-2-oxo-imidazolidine-4-carbonyl-L-histidyl-L-prolinamide-dihydrate (Compound A) and of orotyl-L-histidyl-L-prolinamide-dihydrate (Compound B) are compared to that of TRH, the thyrotropin-releasing hormone.

[3] = tested on: lowering of body temperature caused by reserpine in mice; assay: body temperature test (reserpine hypothermy); design: sum of the differences between the measured values and the initial temperature: unit not given here; details: for sum of the differences between the measured values and the initial temperature: reserpine 8 mg/kg i.p. 24 h before, rectal temperature every 20 min over 3 h; for effectiveness in counteracting the lowering of body temperature caused by reserpine, compared with TRH: result in words
Experimental: A series of standard tests were run.
Mice are intraperitoneally injected with 8 mg of reserpine per kilogram of body weight with a solution of reserpine, in 5% of ascorbic acid. After twenty-four hours the temperature of the animal has considerably dropped to a temperature, hereinafter designated as the "initial temperature", which is the reference temperature against which the effect of the compounds is measured. Then the test substance is injectd intraperitoneally. Thereafter, every twenty minutes, the temperature (rectal) is recorded over three hours. The sum of the differences between the measured values and the initial temperature are noted. These are reported below for different dosages.

mice = assay: LD50 in mice
Experimental: (§1) For instance with Substance B the following values of the LD50 were determined: […]

[4] = tested on: central nervous system of test animals; assay: central stimulation action in pharmacological tests; details: equal doses of TRH and compound
Excerpt: The compounds of formula I may be administered orally or parenterally. Their effects are observed quickly. For instance, on parenteral administration the effects occur already after ten minutes.
The most remarkable effects of the new products indicated in pharmacological tests is a central stimulation action.

rats [5] = assay: LD50 in rats
Experimental: as §1

rats [6] = assay: wet dog shaking test; details: 25 mg/kg i.p.
Experimental: The stimulant activity of Compound B is also shown in the "wet dog shaking" test of rats (standard test listed below).
Compound B was injected intraperitoneally and the animal activity is periodically observed. The effect of the substance is measured by the average number of shaking movements per minute. The dosage applied is 25 mg of substance/kilogram of body weight.

SMILES	number of dead mice (in percent) sixty minutes after amphetamine ([1]; substance 10 mg/kg i.p.)	number of dead mice (in percent) sixty minutes after amphetamine ([1]; substance 20 mg/kg i.p.)	number of dead mice (in percent) sixty minutes after amphetamine ([1]; substance 50 mg/kg i.p.)	number of dead mice (in percent) sixty minutes after amphetamine ([1]; substance 100 mg/kg i.p.)	number of dead mice (in percent) sixty minutes after amphetamine ([1]; substance 200 mg/kg i.p.)	motility measurement ([2]; substance 3 mg/kg i.p.)	motility measurement ([2]; substance 5 mg/kg i.p.)	motility measurement ([2]; substance 10 mg/kg i.p.)	stimulation of the mobility of animals [2]	dose required relative to TRH to obtain an equally marked thyrotropin release (thyrotropin release)	sum of the differences between the measured values and the initial temperature ([3]; substance 2 mg/kg i.p.)	sum of the differences between the measured values and the initial temperature ([3]; substance 5 mg/kg i.p.)	sum of the differences between the measured values and the initial temperature ([3]; substance 10 mg/kg i.p.)	sum of the differences between the measured values and the initial temperature ([3]; substance 20 mg/kg i.p.)	effectiveness in counteracting the lowering of body temperature caused by reserpine, compared with TRH [3]	average number of shaking movements per minute (rats [6]; 15 minutes after application)	average number of shaking movements per minute (rats [6]; 30 minutes after application)	further results
NC(=O)[C@@H]1CCCN1C(=O)[C@H](Cc1c[nH]cn1)NC(=O)C1CNC(=O)N1.O.O (stereo partly drawn) [Compound A, L-2-oxo-imidazolidine-4-carbonyl-L-histidyl-L-prolinamide-dihydrate]	15%	40%	60%	50%	85%	17.0	21.7	94.1	stimulate the mobility of animals	ten-times greater dose than TRH	20.8	26.1	32.8	40.1	marketly more effective than TRH			
NC(=O)[C@@H]1CCCN1C(=O)[C@H](Cc1c[nH]cn1)NC(=O)c1cc(=O)[nH]c(=O)[nH]1.O.O [Compound B, orotyl-L-histidyl-L-prolinamide-dihydrate]	70%	55%	75%	90%	80%	98.0	106.0	104.0	stimulate the mobility of animals	ten-times greater dose than TRH	34.6	42.3	55.3	67.1	marketly more effective than TRH	5.25	3.8	LD50 (mice; intramuscularly): > 4000 mg/kg; LD50 (mice; intraveneously): 1200 mg/kg; LD50 (mice; orally): > 1000 mg/kg; duration of effect relative to TRH [4]: several times longer; strength of stimulating effect on the central nervous system relative to TRH [4]: about five times stronger; LD50 (rats [5]; intramuscularly): > 4000 mg/kg; LD50 (rats [5]; intraveneously): 1000 mg/kg; LD50 (rats [5]; orally): > 1000 mg/kg; average number of shaking movements per minute (rats [6]; 45 minutes after application): 3.2; average number of shaking movements per minute (rats [6]; 60 minutes after application): 2.15; average number of shaking movements per minute (rats [6]; 75 minutes after application): 2.1; average number of shaking movements per minute (rats [6]; 90 minutes after application): 1.55; average number of shaking movements per minute (rats [6]; 105 minutes after application): 1.05; average number of shaking movements per minute (rats [6]; 120 minutes after application): 0.6; average number of shaking movements per minute (rats [6]; 135 minutes after application): 0.3; duration of action compared with TRH (rats [6]; result in words): longer acting than TRH
NC(=O)[C@@H]1CCCN1C(=O)[C@H](Cc1c[nH]cn1)NC(=O)C1CSCC(=O)N1.O (stereo partly drawn) [Compound C, L-5-oxo-thiomorpholine-3-carbonyl-L-histidyl-L-prolinamide-hydrate]	60%	70%	70%	70%	90%	51.0	72.0	69.0	stimulate the mobility of animals									
NC(=O)[C@@H]1CCCN1C(=O)[C@H](Cc1c[nH]cn1)NC(=O)[C@@H]1CCC(=O)N1 [TRH, pyroglutamyl-histidyl-proline amide, reference compound]	20%	25%	55%	65%	65%	0.9	1.2	44.0			18.4	16.5	27.9	32.8		2.9	1.0	
